Literature values, collected in PubChem BioAssay AID1259409 (Chemical Carcinogenesis Research Information System (CCRIS), 2018).

System: rodent chemically induced tumor inhibition, incidence and multiplicity
Experiment: CCRIS tumor inhibitor studies
Conditions: Carcinogen: OCHRATOXIN A, 303-47-9, Route [Inhibitor]: ORAL, Species: RAT, Dose [Carcinogen]: 0.4 MG/KG BW 3X/WK FOR LIFETIME, Promoter: NONE

SMILES: O=S(=O)(O)CCS
- outcome (Dose [Inhibitor]: 1 G/L IN DRINKING WATER FOR LIFETIME (STUDY DURATION: LIFETIME), Strain/Sex: DA/FEMALE, Target Tissue: Type of Lesion: URETHRA: TRANSITIONAL CELL CARCINOMA): 0/40 (0%), 0/40 (0%), 0%, not significant
- outcome (Dose [Inhibitor]: 1 G/L IN DRINKING WATER FOR LIFETIME (STUDY DURATION: LIFETIME), Strain/Sex: DA/FEMALE, Target Tissue: Type of Lesion: URINARY BLADDER: TRANSITIONAL CELL CARCINOMA): 0/40 (0%), 0/40 (0%), 0%, not significant
- tumour outcome (control, treated, inhibition, significance) (Dose [Inhibitor]: 1 G/L IN DRINKING WATER FOR LIFETIME (STUDY DURATION: LIFETIME), Strain/Sex: DA/MALE, Target Tissue: Type of Lesion: KIDNEY: TUBULAR CELL ADENOMA): 1/20 (5%), 0/20 (0%), 100%, not significant
- tumour outcome (control, treated, inhibition, significance) (Dose [Inhibitor]: 1 G/L IN DRINKING WATER FOR LIFETIME (STUDY DURATION: LIFETIME), Strain/Sex: DA/MALE, Target Tissue: Type of Lesion: KIDNEY: TUBULAR CELL CARCINOMA): 6/20 (30%), 2/20 (40%), -33%, not significant
- outcome (Dose [Inhibitor]: 1 G/L IN DRINKING WATER FOR LIFETIME (STUDY DURATION: LIFETIME), Strain/Sex: DA/MALE, Target Tissue: Type of Lesion: URETHRA: TRANSITIONAL CELL CARCINOMA): 0/20 (0%), 0/20 (0%), 0%, not significant
- outcome (Dose [Inhibitor]: 1 G/L IN DRINKING WATER FOR LIFETIME (STUDY DURATION: LIFETIME), Strain/Sex: DA/MALE, Target Tissue: Type of Lesion: URINARY BLADDER: TRANSITIONAL CELL PAPILLOMA): 0/20 (0%), 0/20 (0%), 0%, not significant
- outcome (Dose [Inhibitor]: 1 G/L IN DRINKING WATER FOR LIFETIME (STUDY DURATION: LIFETIME), Strain/Sex: LEWIS/FEMALE, Target Tissue: Type of Lesion: KIDNEY: TUBULAR CELL ADENOMA): 0/20 (0%), 0/20 (0%), 0%, not significant
- outcome (Dose [Inhibitor]: 1 G/L IN DRINKING WATER FOR LIFETIME (STUDY DURATION: LIFETIME), Strain/Sex: LEWIS/FEMALE, Target Tissue: Type of Lesion: URETHRA: TRANSITIONAL CELL CARCINOMA): 0/20 (0%), 0/20 (0%), 0%, not significant
- outcome (Dose [Inhibitor]: 1 G/L IN DRINKING WATER FOR LIFETIME (STUDY DURATION: LIFETIME), Strain/Sex: LEWIS/MALE, Target Tissue: Type of Lesion: KIDNEY: TUBULAR CELL ADENOMA): 0/20 (0%), 0/20 (0%), 0%, not significant
- tumour outcome (control, treated, inhibition, significance) (Dose [Inhibitor]: 1 G/L IN DRINKING WATER FOR LIFETIME (STUDY DURATION: LIFETIME), Strain/Sex: LEWIS/MALE, Target Tissue: Type of Lesion: KIDNEY: TUBULAR CELL CARCINOMA): 2/20 (10%), 1/20 (5%), 50%, not significant
- outcome (Dose [Inhibitor]: 1 G/L IN DRINKING WATER FOR LIFETIME (STUDY DURATION: LIFETIME), Strain/Sex: LEWIS/MALE, Target Tissue: Type of Lesion: URETHRA: TRANSITIONAL CELL CARCINOMA): 0/20 (0%), 0/20 (0%), 0%, not significant
- outcome (Dose [Inhibitor]: 1 G/L IN DRINKING WATER FOR LIFETIME (STUDY DURATION: LIFETIME), Strain/Sex: LEWIS/MALE, Target Tissue: Type of Lesion: URINARY BLADDER: TRANSITIONAL CELL CARCINOMA): 0/20 (0%), 0/20 (0%), 0%, not significant
- outcome (Dose [Inhibitor]: 1 G/L IN DRINKING WATER FOR LIFETIME (STUDY DURATION: LIFETIME), Strain/Sex: LEWIS/MALE, Target Tissue: Type of Lesion: URINARY BLADDER: TRANSITIONAL CELL PAPILLOMA): 0/20 (0%), 0/20 (0%), 0%, not significant
- outcome (Dose [Inhibitor]: 1 G/LITER IN DRINKING WATER FOR LIFETIME (STUDY DURATION: LIFETIME), Strain/Sex: DA/FEMALE, Target Tissue: Type of Lesion: KIDNEY: TUBULAR CELL ADENOMA): 0/40 (0%), 0/40 (0%), 0%, not significant
- outcome (Dose [Inhibitor]: 1 G/LITER IN DRINKING WATER FOR LIFETIME (STUDY DURATION: LIFETIME), Strain/Sex: DA/FEMALE, Target Tissue: Type of Lesion: KIDNEY: TUBULAR CELL CARCINOMA): 0/40 (0%), 0/40 (0%), 0%, not significant
